# Results as given in patent US20230257351A1, “SUBSTITUTED N-[…] HAVING P2X4 RECEPTOR ANTAGONISTIC ACTIVITY” (Bayer Aktiengesellschaft, priority 2020, published 2023).
# pIC50: −log10 of the molar value.
# What was measured:
# rat P2X4 = target: T1, rat P2X4 (Rattus norvegicus, UniProt P51577); assay: FLIPR Method for Rat P2X4 1321N1 Astrocytoma Cells; assay type: cell-based; details: 1321N1 stably expressing rat P2X4; agonist MgATP 5 μM (EC80)
# T1 construct: expressed in transfected cells
# T1 sequence (P51577 1-388): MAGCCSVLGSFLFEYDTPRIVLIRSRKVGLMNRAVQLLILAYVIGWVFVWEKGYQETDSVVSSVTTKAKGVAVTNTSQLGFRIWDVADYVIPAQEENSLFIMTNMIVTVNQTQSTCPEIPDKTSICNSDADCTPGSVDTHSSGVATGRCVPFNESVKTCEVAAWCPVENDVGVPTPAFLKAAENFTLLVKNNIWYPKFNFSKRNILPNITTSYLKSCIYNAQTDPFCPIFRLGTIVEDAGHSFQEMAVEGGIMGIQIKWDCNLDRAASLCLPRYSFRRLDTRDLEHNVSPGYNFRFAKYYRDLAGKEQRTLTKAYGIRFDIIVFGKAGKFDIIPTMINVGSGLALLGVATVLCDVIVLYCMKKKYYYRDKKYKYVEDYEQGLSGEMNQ
# Outline: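 1321N1 cells stably expressing rat P2X4, Fluo8-AM loaded; compounds (25 μM to 1 nM final, ten concentrations) preincubated 30 min at room temperature, then MgATP added at 5 μM (EC80). Calcium fluorescence read on FLIPR before and after agonist; triplicate data normalized to agonist control, four-parameter fit gives IC50.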
# [1] = test system: intraplantar Complete Freund's Adjuvant (CFA)-induced acute inflammatory pain; assay: CFA Inflammation Model in Rats with Pain Behaviour Read Out; assay type: in vivo, male Sprague Dawley rats; details: for PWT 2 hour-post drug / PWT 4 hour-post drug: mean PWT
# Procedure: Compound was tested in the model of intraplantar Complete Freund's Adjuvant (CFA)-induced acute (48-hours setting) inflammatory pain in male Sprague Dawley rats. Briefly, 25 μl of CFA at 1 mg/ml was injected into the plantar surface of one hind paw. Mechanical hyperalgesia was measured using the Pressure Application Measurement apparatus (Ugo Basile, Gemonio, Italy). A linearly increasing pressure was applied to an area of approximately 50 mm^2 of the plantar side of the hind paw until a behavioural response (paw withdrawal) was observed or until the pressure reached 1000 grams of force (gf). The pressure at which the behavioural response occurred was recorded as the “Paw Withdrawal Threshold” (PWT). Both CFA-injected and contralateral PWTs were determined for each rat, in each treatment group and at each time point of the studies. The measurements were performed blinded. […] Compound or vehicle (10% DMSO, 40% Solutol, 50% water for injection, vol/vol) were dosed via oral route (p.o.) once daily (QD) or twice daily (BID) during 3 days, starting before CFA injection. Data were expressed as the mean PWT for each treatment group and at each time point. PWT data were analysed by performing a two way ANOVA with repeated measures (time×treatment). Planned comparison of means (each versus vehicle) was performed by using a Dunnett's post hoc test, provided that a main effect was detected. For p values less than 0.05, the results were deemed to be statistically significant.
# human P2X4 = target: T2, human P2X4 (Homo sapiens, UniProt Q99571); assay: Human P2X4 HEK Cell FLIPR Assay; assay type: cell-based; details: HEK293 stably expressing human P2X4, agonist Bz-ATP 3 μM (EC80); for pIC50: read-out: Human P2X4 HEK Cells (FLIPR Assay) avg IC50
# T2 construct: expressed in transfected cells
# T2 sequence (Q99571 1-388): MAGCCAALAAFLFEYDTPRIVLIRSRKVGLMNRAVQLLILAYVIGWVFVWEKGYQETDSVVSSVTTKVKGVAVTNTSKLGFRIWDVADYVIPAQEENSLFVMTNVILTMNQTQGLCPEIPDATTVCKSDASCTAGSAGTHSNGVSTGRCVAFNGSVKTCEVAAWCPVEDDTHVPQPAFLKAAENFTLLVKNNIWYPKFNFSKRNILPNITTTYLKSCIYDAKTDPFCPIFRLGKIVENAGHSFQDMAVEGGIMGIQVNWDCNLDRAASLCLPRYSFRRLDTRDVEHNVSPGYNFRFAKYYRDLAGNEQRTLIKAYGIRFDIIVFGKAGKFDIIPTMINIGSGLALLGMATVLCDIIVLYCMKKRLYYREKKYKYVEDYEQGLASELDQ
# Outline: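 HEK293 cells stably expressing human P2X4 were loaded with Fluo8-AM (30 min, 37 °C, HBSS/HEPES pH 7.4 with probenecid), then preincubated 30 min at room temperature with compound, 25 μM–1 nM final, 0.5% DMSO. Bz-ATP-evoked calcium fluorescence was read on FLIPR; data were normalized to agonist control and given a four-parameter fit for IC50.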
# [2] = rat CFA, 50 mg/kg QD p.o. during 3 days
# [3] = rat CFA, 100 mg/kg QD p.o. during 3 days
SMILES,pIC50 (rat P2X4),Rat P2X4 1321N1 Astrocytoma Cells (FLIPR Assay) avg Efficacy (rat P2X4) [%],"PWT 2 hour-post drug [1, 2] [gf]","PWT 4 hour-post drug [1, 2] [gf]","PWT 2 hour-post drug [1, 3] [gf]","PWT 4 hour-post drug [1, 3] [gf]","pain after treatment ([1]; rat CFA, 50 and 100 mg/kg doses QD, 2 and 4 hours after last administration)","development of inflammatory pain after the injection of CFA ([1]; rat, oral administration QD during 3 days)",Human P2X4 HEK Cells (FLIPR Assay) avg Efficacy (human P2X4) [%],pIC50 (human P2X4)
"CC(=O)N(c1ccc(F)cc1)c1cc(NC(=O)Cc2cccc(F)c2Cl)ccn1 [Example 2, N-{4-[2-(2-chloro-3-fluorophenyl)acetamido]pyridin-2-yl}-N-(4-fluorophenyl)acetamide]",6.45,95,727,688,763,839,significantly reduced pain,prevented the development of inflammatory pain,97,6.67
"CC(=O)N(c1cc(NC(=O)Cc2cccc(F)c2Cl)ccn1)c1cc(F)ccc1Cl [Example 113, N-(2-chloro-5-fluorophenyl)-N-{4-[2-(2-chloro-3-fluorophenyl)acetamido]pyridin-2-yl}acetamide]",6.25,100,,,,,,,97,6.54
"CC(=O)N(c1cc(NC(=O)Cc2c(Cl)cccc2Cl)ccn1)c1cc(F)ccc1Cl [Example 114, N-(2-chloro-5-fluorophenyl)-N-{4-[2-(2,6-dichlorophenyl)acetamido]pyridin-2-yl}acetamide]",6.74,99,,,,,,,97,6.59
"CC(=O)N(c1cc(NC(=O)Cc2ccc(F)cc2Cl)ccn1)c1cccc(F)c1F [Example 123, N-{4-[2-(2-chloro-4-fluorophenyl)acetamido]pyridin-2-yl}-N-(2,3-difluorophenyl)acetamide]",6.20,89,,,,,,,97,6.36
"CC(=O)N(c1cc(NC(=O)Cc2ccccc2Cl)ccn1)c1ccc(F)cc1F [Example 126, N-{4-[2-(2-chlorophenyl)acetamido]pyridin-2-yl}-N-(2,4-difluorophenyl)acetamide]",6.42,83,,,,,,,96,6.75
"CC(=O)N(c1cc(NC(=O)Cc2ccc(F)cc2Cl)ccn1)c1ccc(F)cc1F [Example 127, N-{4-[2-(2-chloro-4-fluorophenyl)acetamido]pyridin-2-yl}-N-(2,4-difluorophenyl)acetamide]",6.58,72,,,,,,,97,6.55
"CC(=O)N(c1cc(NC(=O)Cc2cccc(F)c2Cl)ccn1)c1ccc(F)cc1F [Example 128, N-{4-[2-(2-chloro-3-fluorophenyl)acetamido]pyridin-2-yl}-N-(2,4-difluorophenyl)acetamide]",6.34,87,,,,,,,101,6.74
"CC(=O)N(c1cc(NC(=O)Cc2c(Cl)cccc2Cl)ccn1)c1ccc(F)cc1F [Example 129, N-{4-[2-(2,6-dichlorophenyl)acetamido]pyridin-2-yl}-N-(2,4-difluorophenyl)acetamide]",6.67,96,,,,,,,104,6.71
"CC(=O)N(c1cc(NC(=O)Cc2c(F)cccc2Cl)ccn1)c1ccc(F)cc1F [Example 130, N-{4-[2-(2-chloro-6-fluorophenyl)acetamido]pyridin-2-yl}-N-(2,4-difluorophenyl)acetamide]",5.82,80,,,,,,,97,6.59
"CC(=O)N(c1cccc(Cl)c1)c1cc(NC(=O)Cc2ccccc2Cl)ccn1 [Example 131, N-(3-chlorophenyl)-N-{4-[2-(2-chlorophenyl)acetamido]pyridin-2-yl}acetamide]",6.58,98,,,,,,,98,6.69
"CC(=O)N(c1cccc(Cl)c1)c1cc(NC(=O)Cc2ccc(F)cc2Cl)ccn1 [Example 132, N-{4-[2-(2-chloro-4-fluorophenyl)acetamido]pyridin-2-yl}-N-(3-chlorophenyl)acetamide]",6.64,97,,,,,,,98,6.52
"CC(=O)N(c1cccc(Cl)c1)c1cc(NC(=O)Cc2cccc(F)c2Cl)ccn1 [Example 133, N-{4-[2-(2-chloro-3-fluorophenyl)acetamido]pyridin-2-yl}-N-(3-chlorophenyl)acetamide]",6.49,100,,,,,,,100,6.71
"CC(=O)N(c1cccc(Cl)c1)c1cc(NC(=O)Cc2c(F)cccc2Cl)ccn1 [Example 135, N-{4-[2-(2-chloro-6-fluorophenyl)acetamido]pyridin-2-yl}-N-(3-chlorophenyl)acetamide]",6.58,96,,,,,,,99,6.55
"CCCC(=O)N(c1ccc(F)cc1)c1cc(NC(=O)Cc2ccc(F)cc2Cl)ccn1 [Example 141, N-{4-[2-(2-chloro-4-fluorophenyl)acetamido]pyridin-2-yl}-N-(4-fluorophenyl)butanamide]",6.14,100,,,,,,,99,6.05
"CCCC(=O)N(c1ccc(F)cc1)c1cc(NC(=O)Cc2c(F)cccc2Cl)ccn1 [Example 142, N-{4-[2-(2-chloro-6-fluorophenyl)acetamido]pyridin-2-yl}-N-(4-fluorophenyl)butanamide]",6.12,98,,,,,,,86,6.10
"CCCC(=O)N(c1ccc(F)cc1)c1cc(NC(=O)Cc2ccccc2Cl)ccn1 [Example 143, N-{4-[2-(2-chlorophenyl)acetamido]pyridin-2-yl}-N-(4-fluorophenyl)butanamide]",6.03,101,,,,,,,94,6.14
"CCCC(=O)N(c1ccc(F)cc1)c1cc(NC(=O)Cc2c(Cl)cccc2Cl)ccn1 [Example 144, N-{4-[2-(2,6-dichlorophenyl)acetamido]pyridin-2-yl}-N-(4-fluorophenyl)butanamide]",6.25,100,,,,,,,90,6.19
